Laboratory results published in PubChem BioAssay (NCI).
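Each compound was tested at five concentrations against cells in 96-well plates for 48 hours. TGI denotes the concentration required for complete inhibition of growth.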

How the values were obtained:
Test in all cases: NCI-60 cell line screen, 48 h
NCI-H23 lung = test system: NCI-H23 lung
UACC-257 melanoma = test system: UACC-257 melanoma
SNB-19 CNS = test system: SNB-19 CNS
SK-MEL-2 melanoma = test system: SK-MEL-2 melanoma
M14 melanoma = test system: M14 melanoma
NCI/ADR-RES ovarian = test system: NCI/ADR-RES ovarian
HCT-15 colon = test system: HCT-15 colon
HCT-116 colon = test system: HCT-116 colon
SK-MEL-28 melanoma = test system: SK-MEL-28 melanoma
MCF7 breast = test system: MCF7 breast
CAKI-1 renal = test system: CAKI-1 renal
RXF 393 renal = test system: RXF 393 renal
MALME-3M melanoma = test system: MALME-3M melanoma
A549 NSCLC = test system: A549 NSCLC
OVCAR-4 ovarian = test system: OVCAR-4 ovarian
MDA-MB-231 breast = test system: MDA-MB-231 breast
OVCAR-8 ovarian = test system: OVCAR-8 ovarian
786-0 renal = test system: 786-0 renal
T-47D breast = test system: T-47D breast
HCC-2998 colon = test system: HCC-2998 colon
IGROV1 ovarian = test system: IGROV1 ovarian
UACC-62 melanoma = test system: UACC-62 melanoma
SF-295 CNS = test system: SF-295 CNS
HOP-92 NSCLC = test system: HOP-92 NSCLC
NCI-H226 lung = test system: NCI-H226 lung
KM12 colon = test system: KM12 colon
LOX IMVI melanoma = test system: LOX IMVI melanoma
COLO 205 colon = test system: COLO 205 colon
MDA-MB-435 = test system: MDA-MB-435
SF-539 CNS = test system: SF-539 CNS
NCI-H460 lung = test system: NCI-H460 lung
MDA-N = test system: MDA-N
SNB-75 CNS = test system: SNB-75 CNS
U251 CNS = test system: U251 CNS
SW-620 colon = test system: SW-620 colon
DU-145 prostate = test system: DU-145 prostate
OVCAR-3 ovarian = test system: OVCAR-3 ovarian
HS 578T breast = test system: HS 578T breast
SN12C renal = test system: SN12C renal
RPMI-8226 leukemia = test system: RPMI-8226 leukemia
MOLT-4 leukemia = test system: MOLT-4 leukemia
SR leukemia = test system: SR leukemia
SF-268 CNS = test system: SF-268 CNS
HOP-62 NSCLC = test system: HOP-62 NSCLC
UO-31 renal = test system: UO-31 renal
EKVX NSCLC = test system: EKVX NSCLC
A498 renal = test system: A498 renal
K-562 leukemia = test system: K-562 leukemia
BT-549 breast = test system: BT-549 breast
OVCAR-5 ovarian = test system: OVCAR-5 ovarian
ACHN renal = test system: ACHN renal
SK-OV-3 ovarian = test system: SK-OV-3 ovarian
HT29 colon = test system: HT29 colon
TK-10 renal = test system: TK-10 renal
NCI-H522 lung = test system: NCI-H522 lung
PC-3 prostate = test system: PC-3 prostate
SK-MEL-5 melanoma = test system: SK-MEL-5 melanoma

Structure (SMILES): N#CC1(C#N)C2=C(CCCC2)NC(c2ccc(Br)cc2)C1(C#N)C#N (configuration not stated)
- TGI (NCI-H23 lung): 30.3 µM
- TGI (UACC-257 melanoma): 11.5 µM
- TGI (SNB-19 CNS): 30.1 µM
- TGI (SK-MEL-2 melanoma): 34.1 µM
- TGI (M14 melanoma): 7.04 µM
- TGI (NCI/ADR-RES ovarian): > 100 µM
- TGI (HCT-15 colon): 9.85 µM
- TGI (HCT-116 colon): 4.15 µM
- TGI (SK-MEL-28 melanoma): 25.9 µM
- TGI (MCF7 breast): 19.9 µM
- TGI (CAKI-1 renal): 4.99 µM
- TGI (RXF 393 renal): 6.15 µM
- TGI (MALME-3M melanoma): 3.83 µM
- TGI (A549 NSCLC): 30.9 µM
- TGI (OVCAR-4 ovarian): 20.7 µM
- TGI (MDA-MB-231 breast): 23.9 µM
- TGI (OVCAR-8 ovarian): 11.5 µM
- TGI (786-0 renal): 3.75 µM
- TGI (T-47D breast): 5.41 µM
- TGI (HCC-2998 colon): 46.4 µM
- TGI (IGROV1 ovarian): 9.24 µM
- TGI (UACC-62 melanoma): 32.4 µM
- TGI (SF-295 CNS): 56.5 µM
- TGI (HOP-92 NSCLC): 18.9 µM
- TGI (NCI-H226 lung): 39 µM
- TGI (KM12 colon): 29.4 µM
- TGI (LOX IMVI melanoma): 6.93 µM
- TGI (COLO 205 colon): 2.58 µM
- TGI (MDA-MB-435): 9.05 µM
- TGI (SF-539 CNS): 31.6 µM
- TGI (NCI-H460 lung): 63.6 µM
- TGI (MDA-N): 14 µM
- TGI (SNB-75 CNS): 30.8 µM
- TGI (U251 CNS): 26.8 µM
- TGI (SW-620 colon): 2.88 µM
- TGI (DU-145 prostate): 25.1 µM
- TGI (OVCAR-3 ovarian): 18.2 µM
- TGI (HS 578T breast): 44.6 µM
- TGI (SN12C renal): 7.06 µM
- TGI (RPMI-8226 leukemia): 15.8 µM
- TGI (MOLT-4 leukemia): 15.7 µM
- TGI (SR leukemia): 5.56 µM
- TGI (SF-268 CNS): 24.7 µM
- TGI (HOP-62 NSCLC): 35.7 µM
- TGI (UO-31 renal): 3.03 µM
- TGI (EKVX NSCLC): 25.3 µM
- TGI (A498 renal): 37.5 µM
- TGI (K-562 leukemia): 12 µM
- TGI (BT-549 breast): 26.9 µM
- TGI (OVCAR-5 ovarian): 24.9 µM
- TGI (ACHN renal): 3.88 µM
- TGI (SK-OV-3 ovarian): > 56.4 µM
- TGI (HT29 colon): 10.1 µM
- TGI (TK-10 renal): 16 µM
- TGI (NCI-H522 lung): 3.06 µM
- TGI (PC-3 prostate): 26.8 µM
- TGI (SK-MEL-5 melanoma): 28.8 µM
